In patent US20210371351A1, “MIXTURES COMPRISING AT LEAST TWO DIFFERENT NITRIFICATION INHIBITORS SELECTED FROM 2-(3,4-DIMETHYL-1H-PYRAZOL-1-YL)SUCCINIC ACID (DMPSA), 3,4-DIMETHYL PYRAZOLIUM GLYCOLATE (DMPG) AND OTHER COMPOUNDS” (BASF SE, priority 2017, published 2021):

Tested on: nitrification
Test: Example 4: soil column trial (soil Limburgerhof), DMPSA and DMPP, other weight ratios; incubation 10 d at 15° C.; % inhibition of NO3-N formation (Böhland), Colby
Details: 10 days of incubation at 15° C.; 0.005% DMPP, 0.45% DMPSA
From the text: The effect on NH4+ retention and NH4+ to NO3− ratios in the soil after fertilization of ammonium sulfate with the addition of DMPP, DMPSA or a combination of DMPP and DMPSA was investigated in column trials simulating climatic conditions of spring time in central Europe. Soil Limburgerhof (pH(CaCl2) 6.8, texture: 73% sand; 24% silt, 3% clay) was filled dry into a glass column with an inner width of 4 cm. At the bottom 0.4 g cotton wool was placed above which a frit (Co. Robu, pore size 1) was placed above which 100 g of 2 mm sieved soil Limburgerhof was layered. The soil height in the column was about 7 cm. Before fertilization the soil was brought to about 60% of its water holding capacity (WHC) be adding 14.4 mL of deionized water. Per column 10 mg NH4—N as ammonium sulfate was fertilized or not (control) together or not with 0.005% or 0.015% DMPP (DMPP obtained from BASF SE), 0.45% DMPSA (DMPSA used as free acid obtained from BASF SE) and […] or 0.015% DMPP plus 0.45% DMPSA (% of nitrification inhibitor w/w of NH4-N). Every treatment was replicated three times. After fertilization, 50 mL demineralized water was carefully and slowly placed on top of each column which equals about 31 mm precipitation. After 24 h the eluate was collected and by sucking off the soil to bring it back to about 60% of its WHC. All handlings including soil preparation, fertilization and the temperature of the water for both wetting the soil and the artificial precipitation up to the collection of the eluate 24 h after fertilization was performed at 5° C.
Thereafter, the columns were incubated for 10 d or 20 d at constantly 15° C. in an incubator. After 7 d and 14 d water was added by weight where needed to bring the soils uniformly to 60% WHC. After 10 d or 20 d the soil was removed from the columns and extracted with 1% (w/w) K2SO4 solution by shaking for 2 h at room temperature. The filtrated extract was then analyzed for NH4+ and NO3− colorimetrical by an autoanalyzer.
To calculate the inhibition of nitrate formation by the nitrification inhibitors during the incubation, the above-mentioned Böhland equation was used. To examine synergistic effects of the combination of DMPP+DMPSA the formula by Colby (Colby, S.R., “Calculating synergistic and antagonistic responses of herbicide Combinations”, Weeds, 15, pp. 20-22, 1967) was used. To determine background levels of NH4+ to NO3−, every treatment was also extracted immediately after fertilization and after leaching prior to the further incubation at 15° C. for 10 d or 20 d.

## 2-(3,4-dimethyl-1H-pyrazol-1-yl)succinic acid and/or 2-(4,5-dimethyl-1H-pyrazol-1-yl)succinic acid [DMPSA]
  During incubation: % inhibition of NO3—N formation by NI acc. to Böhland equation (1973) (MV): 22.9%
  Net NI effect % NH4 from fertilized NH4 (MV): 9.36%
  Ratio NH4—N/NO3—N (MV): 0.20
  Soil mg/100 g NH4—N (MV): 0.96 mg/100 g
  Soil mg/100 g NO3—N (MV): 5.15 mg/100 g
